Columns and labels:
[1] = system: MOLM14 human acute myeloid cells; assay: MTT cytotoxicity assay, MOLM14; assay type: cell-based; conditions: concentration 0.0025 mg/mL
Procedure: The MOLM14 AML cell line, MV4;11, and THP1 cell lines were cultured and incubated in RPMI 1640 medium with 10% FBS at 37° C. and air containing 5% CO2. When the cells reached about 70% confluency, the cells were split with a density of 40,000 cells per cm^2. Adult Retinal Pigment Epithelial (ARPE-19) cells were grown in Dulbecco's Modified Eagle Medium (DMEM)/F12 (1:1) with 10% FBS and 1% Penicillin-Streptomycin (Pen-Strep). Dental Pulp Stem Cells (DPSCs) were grown in DMEM with glutamine and 10% FBS and 1% Pen-Strep. A Hemolysis assay kit was purchased from Creative Biolabs™.
The cytotoxicity of plain nanogels, plain SDS nanogels and 2, 5, 10 and 15 wt % ART631-loaded NanoART631 were assessed using thiazolyl blue tetrazolium bromide (MTT) and WST1 assays against MOLM14 human acute myeloid cells, MV4;11 cells, THP1 cells, normal adult retinal pigment epithelium-19 (ARPE-19) cells, and dental pulp stem cells (DPSCs). […] Pure ART631, ART838, 5 and 10 wt % NanoART631 IC50 were determined by adding 5e^−6, 5e^−5, 5e^−4, 6.25e^−4, 0.001, 0.0025, 0.005, 0.01, 0.05, 0.1, 0.2, 0.5, 1, 5, 10 mg·mL-1 of the formulation to MOLM14 AML cells. […] Absorbance was read at 570 nm using a BioTek™ cytation 5 microplate reader for all experiments after removing all the wells contents and then dissolving the formazan crystals in 150 μL of DMSO. […]

[2] = system: 9 human leukemia cell lines; conditions: 9 human leukemia cell lines in vitro; cited from earlier work
[3] = Water solubility of ART631, alone and loaded into nanogels; assay type: physicochemical; conditions: drug without nanogel

Compound	MOLM14 cells killed [1]	IC50 [2]	solubility [3]
C[C@@H]1CCC2[C@@H](C)[C@@H](CC(COP(=O)(Oc3ccccc3)Oc3ccccc3)C[C@H]3O[C@@H]4O[C@@]5(C)CCC6[C@H](C)CCC([C@H]3C)[C@]64OO5)O[C@@H]3O[C@@]4(C)CCC1[C@@]23OO4 (stereo partly shown) [ART838]	64%	–	–
C=CCO/N=C(/C[C@H]1O[C@@H]2O[C@@]3(C)CC[C@H]4[C@H](C)CC[C@@H]([C@H]1C)[C@@]24OO3)[C@H]1O[C@@H]2O[C@@]3(C)CC[C@H]4[C@H](C)CC[C@@H]([C@H]1C)[C@@]24OO3 [ART631]	67%	< 45 nM	< 10 µg/mL

— patent US20250262146A1, “PLATFORM NANOPARTICLE TECHNOLOGY FOR SUSTAINED DELIVERY OF HYDROPHOBIC DRUGS” (UNIVERSITY OF MARYLAND, BALTIMORE, priority 2022, published 2025)
